Laboratory results as given in PubChem BioAssay AID248 (DTP/NCI, 2004).
Where “and” joins values, the source holds several entries; their conditions need not be identical. Equal values may be shown once. Toxic doses and inconclusive results are not listed.

Tested on: L1210 leukemia ip in BDF1 mice, survival T/C
Experiment: NCI In Vivo Anticancer Drug Screen. Data for tumor model L1210 Leukemia (intraperitoneal) in B6D2F1 (BDF1) mice
Settings: endpoint: mean survival time, higher = longer survival
In short: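 Transplantable tumor model; survival measured in treated vs vehicle control mice. Value = treated/control.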

[1] = dose: 100.0 mg/kg/injection, schedule: Q01DX001 (ip), vehicle: carboxymethylcellulose (CMC)
[2] = dose: 200.0 mg/kg/injection, schedule: Q01DX001 (ip), vehicle: carboxymethylcellulose (CMC)
[3] = dose: 400.0 mg/kg/injection, schedule: Q01DX001 (ip), vehicle: carboxymethylcellulose (CMC)
[4] = dose: 100.0 mg/kg/injection, schedule: Q01DX009 (ip), vehicle: Klucel (hydroxypropylcellulose) (HPC)
[5] = dose: 200.0 mg/kg/injection, schedule: Q01DX009 (ip), vehicle: Klucel (hydroxypropylcellulose) (HPC)
[6] = dose: 400.0 mg/kg/injection, schedule: Q01DX009 (ip), vehicle: Klucel (hydroxypropylcellulose) (HPC)
[7] = dose: 100.0 mg/kg/injection, schedule: Q04DX003 (ip), vehicle: saline with Tween-80
[8] = dose: 200.0 mg/kg/injection, schedule: Q04DX003 (ip), vehicle: saline with Tween-80

Which results are given for `Cn1cnc([N+](=O)[O-])c1[Se]c1nc(N)nc2c1ncn2C1OC(CO)C(O)C1O` (stereo unspecified)?
T/C (dose: 12.5 mg/kg/injection, schedule: Q01DX009 (ip), vehicle: saline): 161 % of control and 165 % of control; T/C (dose: 25.0 mg/kg/injection, schedule: Q01DX009 (ip), vehicle: saline): 189 % of control and 201 % of control; T/C (dose: 50.0 mg/kg/injection, schedule: Q01DX009 (ip), vehicle: saline): 203 % of control and 255 % of control

Which results are given for `O=C(Nc1cccc(C(=O)Nc2ccc(C3=NCCN3)cc2)c1)Nc1cccc(C(=O)Nc2ccc(C3=NCCN3)cc2)c1`?
T/C (dose: 15.0 mg/kg/injection, schedule: Q01DX Z (ip), vehicle: methylcellulose (MC)): 94 % of control; T/C (dose: 30.0 mg/kg/injection, schedule: Q01DX Z (ip), vehicle: methylcellulose (MC)): 105 % of control; T/C (dose: 60.0 mg/kg/injection, schedule: Q01DX Z (ip), vehicle: methylcellulose (MC)): 100 % of control; T/C (dose: 120.0 mg/kg/injection, schedule: Q01DX Z (ip), vehicle: methylcellulose (MC)): 102 % of control; T/C (dose: 125.0 mg/kg/injection, schedule: Q01DX Z (ip), vehicle: water): 93 % of control; T/C (dose: 250.0 mg/kg/injection, schedule: Q01DX Z (ip), vehicle: water): 102 % of control; T/C (dose: 500.0 mg/kg/injection, schedule: Q01DX Z (ip), vehicle: water): 101 % of control

With `NC(N)=N/N=C\c1c[nH]c2ccc(Br)cc12` as the compound, how does the T/C (dose: 15.0 mg/kg/injection, schedule: Q01DX Z (ip), vehicle: saline) read?
Its T/C is 96 % of control.

What about the T/C (dose: 30.0 mg/kg/injection, schedule: Q01DX Z (ip), vehicle: saline) of the same compound?
The T/C was 113 % of control.

What about the T/C (dose: 60.0 mg/kg/injection, schedule: Q01DX Z (ip), vehicle: saline) of the same compound?
The T/C was 103 % of control.

What about the T/C (dose: 120.0 mg/kg/injection, schedule: Q01DX Z (ip), vehicle: saline) of the same compound?
The T/C was 106 % of control.

What about the T/C (dose: 240.0 mg/kg/injection, schedule: Q01DX Z (ip), vehicle: saline) of the same compound?
Its T/C is 98 % of control.

And the T/C (dose: 240.0 mg/kg/injection, schedule: Q01DX Z (oral), vehicle: saline)?
The T/C was 94 % of control.

What about the T/C (dose: 480.0 mg/kg/injection, schedule: Q01DX Z (oral), vehicle: saline) of the same compound?
The T/C was 94 % of control.

Which results are given for `CC1([N+](=O)[O-])COP(=O)(Nc2cccc(Cl)c2)OC1` (stereo unspecified)?
T/C [1]: 95 % of control; T/C [2]: 95 % of control; T/C [3]: 101 % of control

Which T/C (dose: 25.0 mg/kg/injection, schedule: Q04DX002 (ip), vehicle: Klucel (hydroxypropylcellulose) (HPC)) does the source give for `Cc1cnc(NN)nc1-c1ccccc1O` here?
The T/C was 95 % of control.

And the T/C (dose: 50.0 mg/kg/injection, schedule: Q04DX002 (ip), vehicle: Klucel (hydroxypropylcellulose) (HPC))?
The T/C was 97 % of control.

What about the T/C (dose: 100.0 mg/kg/injection, schedule: Q04DX002 (ip), vehicle: Klucel (hydroxypropylcellulose) (HPC)) of the same compound?
The T/C was 105 % of control and 110 % of control.

Which results are given for `O=c1cc(N2CCOCC2)nc2ccccn12`?
T/C [1]: 100 % of control; T/C [2]: 96 % of control; T/C [3]: 102 % of control

Which results are given for `O=C(O)c1c(Br)c(Br)c(Br)c(Br)c1C(=O)Nc1ccc(Cl)cc1C(F)(F)F`?
T/C [4]: 101 % of control; T/C [5]: 112 % of control; T/C [6]: 102 % of control

What does the source list for `Nc1ncnc2c1nnn2CCCCCC(=O)O`?
T/C [7]: 100 % of control; T/C [8]: 101 % of control; T/C (dose: 400.0 mg/kg/injection, schedule: Q04DX003 (ip), vehicle: saline with Tween-80): 97 % of control

For `OC(CC1=NNC(=S)NC1)(C(F)(F)F)C(F)(F)F`, which T/C [7] is on record?
Its T/C is 95 % of control.

And the T/C [8]?
The T/C was 87 % of control.

How did the T/C (dose: 100.0 mg/kg/injection, schedule: Q04DX002 (ip), vehicle: saline with Tween-80) turn out when `C1CCC(C2CCC(C3CCCC3)C2)C1` (stereo unspecified) was run?
Its T/C is 91 % of control.

What about the T/C (dose: 200.0 mg/kg/injection, schedule: Q04DX002 (ip), vehicle: saline with Tween-80) of the same compound?
The T/C was 94 % of control.

And the T/C (dose: 400.0 mg/kg/injection, schedule: Q04DX002 (ip), vehicle: saline with Tween-80)?
The T/C was 91 % of control.

Which results are given for `C[N+]1(C)CCNC(=O)CC1`?
T/C (dose: 75.0 mg/kg/injection, schedule: Q01DX001 (ip), vehicle: saline): 105 % of control; T/C (dose: 150.0 mg/kg/injection, schedule: Q01DX001 (ip), vehicle: saline): 94 % of control; T/C (dose: 300.0 mg/kg/injection, schedule: Q01DX001 (ip), vehicle: saline): 105 % of control

With `CCOC(=O)NC(C)(C)CC(C)(C)C` as the compound, how does the T/C [4] read?
Its T/C is 101 % of control.

And the T/C (dose: 100.0 mg/kg/injection, schedule: Q04DX003 (ip), vehicle: Klucel (hydroxypropylcellulose) (HPC))?
The T/C was 108 % of control.

And the T/C [5]?
Its T/C is 98 % of control.

And the T/C (dose: 200.0 mg/kg/injection, schedule: Q04DX003 (ip), vehicle: Klucel (hydroxypropylcellulose) (HPC))?
Its T/C is 94 % of control.

What about the T/C [6] of the same compound?
The T/C was 103 % of control.

What about the T/C (dose: 400.0 mg/kg/injection, schedule: Q04DX003 (ip), vehicle: Klucel (hydroxypropylcellulose) (HPC)) of the same compound?
Its T/C is 97 % of control.
